Among the data in US9040528B2, “Chemical compounds 542” (AstraZeneca AB, priority 2008, dated 2015) are IC50 values, retold here.

One experiment has as its target Escherichia coli DNA gyrase A/B tetramer (Escherichia coli (strain K12), UniProt P0AES4+P0AES6). In words: DNA gyrase supercoiling activity fluorescence polarisation assay. The experiment is classed as biochemical.
Settings: not given
In short, it runs like this:
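Supercoiling reactions quenched with 40 nM 5′-BODIPY-FL triplex-forming oligonucleotide probe in pH 3.5 NaCl/sodium acetate buffer; after 60 min, fluorescence anisotropy read (ex 485/em 535 nm). IC50 by nonlinear regression, normalised to 0.8% DMSO (100% activity) and 5 μM ciprofloxacin (0% activity).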
For orientation: Polarisation of emitted light reports the rotation of a fluorescent probe.
One may read the IC50 as the point on the concentration scale where inhibition reaches its midpoint. `C[C@@H]1CN2c3c(cc4c(C(N)=O)noc4c3F)CC3(C(=O)NC(=O)NC3=O)[C@H]2[C@H](C)O1` (relative stereo) [Example 142, (2R,4S,4aS)-rel-11-fluoro-2,4-dimethyl-2′,4′,6′-trioxo-2,2′,3′,4,4a,4′,6,6′-octahydro-^1H,1′H-spiro[isoxazolo[4,5-g][1,4]oxazino[4,3-a]quinoline-5,5′-pyrimidine]-8-carboxamide] gave a half-maximal inhibitory concentration (IC50) of 0.3 µM.

The experiment is the same for the next values; noted with them: 5 nM enzyme, relaxed plasmid, 0.3 mM ATP, ambient temperature; read-out: E. coli DNA gyrase supercoiling IC50.
As for `CCN(C)C(=O)c1noc2c(F)c3c(cc12)CC1(C(=O)NC(=O)NC1=O)[C@H]1[C@H](C)O[C@H](C)CN31` (relative stereo) [Example 139, (2R,4S,4aS)-rel-N-ethyl-11-fluoro-N,2,4-trimethyl-2′,4′,6′-trioxo-2,2′,3′,4,4a,4′,6,6′-octahydro-1H,1′H-spiro[isoxazolo[4,5-g][1,4]oxazino[4,3-a]quinoline-5,5′-pyrimidine]-8-carboxamide], the IC50 was 7.6 µM.

For the compound `CNC(=O)c1noc2c(F)c3c(cc12)CC1(C(=O)NC(=O)NC1=O)[C@H]1[C@H](C)O[C@H](C)CN31` (relative stereo) [Example 140, (2R,4S,4aS)-rel-11-fluoro-N,2,4-trimethyl-2′,4′,6′-trioxo-2,2′,3′,4,4a,4′,6,6′-octahydro-1H,1′H-spiro[isoxazolo[4,5-g][1,4]oxazino[4,3-a]quinoline-5,5′-pyrimidine]-8-carboxamide], the IC50 is 1.1 µM.

As for `C[C@@H]1CN2c3c(cc4c(C(=O)N5CCN(C)C(=O)C5)noc4c3F)CC3(C(=O)NC(=O)NC3=O)[C@H]2[C@H](C)O1` (relative stereo) [Example 141, (2R,4S,4aS)-rel-11-fluoro-2,4-dimethyl-8-(4-methyl-3-oxopiperazine-1-carbonyl)-2,4,4a,6-tetrahydro-1H,1′H-spiro[isoxazolo[4,5-g][1,4]oxazino[4,3-a]quinoline-5,5′-pyrimidine]-2′,4′,6′(3′H)-trione], the IC50 worked out at 4.9 µM.

As to `COCCNC(=O)c1noc2c(F)c3c(cc12)CC1(C(=O)NC(=O)NC1=O)[C@H]1[C@H](C)O[C@H](C)CN31` (relative stereo) [Example 143, (2R,4S,4aS)-rel-11-fluoro-N-(2-methoxyethyl)-2,4-dimethyl-2′,4′,6′-trioxo-2,2′,3′,4,4a,4′,6,6′-octahydro-1H,1′H-spiro[isoxazolo[4,5-g][1,4]oxazino[4,3-a]quinoline-5,5′-pyrimidine]-8-carboxamide], the IC50 was 1 µM.

As for `C[C@@H]1CN2c3c(cc4c(C(=O)NC(C)(C)C)noc4c3F)CC3(C(=O)NC(=O)NC3=O)[C@H]2[C@H](C)O1` (relative stereo) [Example 144, (2R,4S,4aS)-rel-N-tert-butyl-11-fluoro-2,4-dimethyl-2′,4′,6′-trioxo-2,2′,3′,4,4a,4′,6,6′-octahydro-1H,1′H-spiro[isoxazolo[4,5-g][1,4]oxazino[4,3-a]quinoline-5,5′-pyrimidine]-8-carboxamide], the 50% inhibitory concentration (IC50) stood at 2.9 µM.

`C[C@@H]1CN2c3c(cc4c(C(=O)N5CCS(=O)(=O)CC5)noc4c3F)CC3(C(=O)NC(=O)NC3=O)[C@H]2[C@H](C)O1` (relative stereo) [Example 145, (2R,4S,4aS)-rel-8-[(1,1-dioxidothiomorpholin-4-yl)carbonyl]-11-fluoro-2,4-dimethyl-1,2,4,4a-tetrahydro-2′H,6H-spiro[isoxazolo[4,5-g][1,4]oxazino[4,3-a]quinoline-5,5′-pyrimidine]-2′,4′,6′(1′H,3′H)-trione]: the IC50 worked out at 5.2 µM.

Regarding `C[C@@H]1CN2c3c(cc4c(C(=O)NC5CCOCC5)noc4c3F)CC3(C(=O)NC(=O)NC3=O)[C@H]2[C@H](C)O1` (relative stereo) [Example 146, (2R,4S,4aS)-rel-11-fluoro-2,4-dimethyl-2′,4′,6′-trioxo-N-(tetrahydro-2H-pyran-4-yl)-2,2′,3′,4,4a,4′,6,6′-octahydro-1H,1′H-spiro[isoxazolo[4,5-g][1,4]oxazino[4,3-a]quinoline-5,5′-pyrimidine]-8-carboxamide], the IC50 stood at 4.9 µM.
